The results in this text go back to US20250049904A1, “IMMUNOSTIMULATORY COMPOSITIONS” (VICTORIA LINK LIMITED, priority 2021, published 2025).

Holding throughout (assay type): in vivo, C57BL/6 mice
The subject of assay [1] is tissue-resident memory T cells (TRM cells). The assay can be described thus: LPX-mRNA vaccination of mice i.v.; antigen-specific TRM, TEM and TCM cells in liver and spleen by flow cytometry. To be noted: agonist in LPX-mOVA vaccine, OT-I transfer, liver 30 days later; for proportion of liver TRM among all vaccine-induced antigen-specific T cells (TRM cell-inducing capability): relative to α-GalCer vaccine. For orientation: In flow cytometry, cells or beads pass a laser one at a time.

Assay [2] concerns liver TRM cells. As to the kind of experiment: LNP-mRNA vaccines, prime and boost; TRM cells in liver and spleen. To be noted: i.m. and i.v. The procedure:
Vaccines were prepared with mRNA encoding OVA encapsulated in LNPs (LNP-mOVA-CI058). Groups of mice (n=5) were vaccinated twice, with an interval of either two weeks, or eight weeks, and then liver and spleen were collected for analysis of T cell responses 28 days after the last dose. (A) Percentages of antigen-specific TRM cells, TEM cells and TCM cells are shown for liver. Black bars: TRM cells; white bars: TEM cells; grey bars: TCM cells. (B) Percentages of antigen-specific TRM cells, TEM cells and TCM cells are shown for spleen. Black bars: TRM cells; white bars: TEM cells; grey bars: TCM cells. (C) Mean number of TRM cells in liver for each treatment group (±SEM); dots represent individual mice. *P<0.05.
Vaccines were prepared with mRNA encoding OVA encapsulated in LNPs (LNP-mOVA-CI536). Groups (n=9-10) of naïve C57BL/6 mice (i.e., no OT-I transfer) were vaccinated once, or twice with an interval of two weeks, with the liver and spleen collected for analysis of T cell responses 28 days after the last dose. (A) Numbers of antigen-specific TRM cells for liver. […] Data were log transformed and analysed by One-way ANOVA with Tukey's post test **P<0.01, ***P<0.001, ****P<0.0001. […]
LNP-mRNA vaccines comprising an ionizable lipid are an established formulation strategy to deliver mRNA vaccines safely and effectively. Therefore, the capacity of LNP-mRNA vaccines containing CI536 and the ionizable lipid DLin-MC3-DMA to stimulate liver TRM was evaluated. […] The memory T cell responses were assessed 28 days after the prime and boost so the impact of the second dose could be assessed. […]
Lymphocytes were stained with monoclonal antibodies for: CD8a (53-6.7), Ly5.1 (A20), CD44 (IM7), CXCR6 (SA051D1), CX3CR1 (SA011F11), from BioLegend (Australian Biosearch, Karrinyup, WA. Australia), and CD62L (MEL-14) and CD69 (H1.2F3), from eBioscience (Jomar Life Research, Scoresby, VIC, Australia). […] Single-color positive control samples were used to adjust compensation and cells were analyzed by flow cytometry on a LSR Fortessa (BD Biosciences), or LSRII SORP using Flowjo software (Tree Star Inc.).

The test system of assay [3] is tissue-resident memory T cells (TRM cells). The assay can be described thus: LPX-mRNA vaccination of mice i.v.; antigen-specific TRM, TEM and TCM cells in liver and spleen by flow cytometry. To be noted: LPX-mOVA vaccines i.v., OT-I cell transfer, 28 days after vaccination. The procedure: FIG. 1 provides a graphical representation showing that LPX-mRNA vaccines containing CI058 induce high levels of liver TRM cells. Liposomes were prepared with DOTMA and DOPE lipids and complexed with mRNA encoding chicken ovalbumin (OVA) to give vaccine LPX-mOVA. Additional vaccines were prepared by including either the prototypical NKT cell agonist α-GalCer (LPX-mOVA-α-GalCer) or the derivative CI058, which has BODIPY attached via an —S in the 6 position of the galactose (LPX-mOVA-CI058). Recipient C57BL/6 mice were transferred 50,000 naïve OVA-specific TCR-transgenic CD8+ T cells (OT-I cells) to enhance the precursor frequency of antigen-specific T cells to aid detection of vaccine-induced responses. A day later, groups of mice (n=5-6) were vaccinated intravenously (0.08 nmol) with the different vaccines; a naive mouse was left untreated. After 28 days, mice were killed and liver and spleen collected for analysis of induced T cell response by flow cytometry. Antigen-specific cells were identified using fluorescent MHC/peptide tetramers containing the targeted CD8^+ T cell epitope recognised by OT-I cells, and expression of Ly5.1, a congenic marker expressed by the OT-I mouse strain and not recipient C57BL/6 mice. The antigen-specific cells were further characterised as resident-memory T cells (TRM cells; CD8^+ Ly5.1^+ […] CD62L^low cells), effector memory T cells (TEM cells; CD8^+ Ly5.1^+ CD44^+ CD69^− CD62L^low cells) or central memory cells (TCM cells; CD8^+ Ly5.1^+ CD44^+ CD69^− CD62Lhigh cells). (A) Percentages of TRM, TEM and TCM OT-I cells in each treatment group in liver. Mean±SEM for each T cell subset are shown; statistical analysis relates only to pairwise comparisons of the percentage of TRM cells between the treatment groups. Black bars: TRM cells; white bars: TEM cells; grey bars: TCM cells. *P<0.05, **P<0.01, ***P<0.001, ****P<0.0001. One-way ANOVA. (B) Percentages of RM, TEM and TCM OT-I cells in each treatment group in spleen. (C) Mean number of TRM cells in liver for each treatment group (±SEM); dots represent individual mice. Black bars: TRM cells; white bars: TEM cells; grey bars: TCM cells. *P<0.05, **P<0.01, ***P<0.001, ****P<0.0001. One-way ANOVA.
Dose response of LPX-mOVA-α-GalCer versus LPX-mOVA-CI058 vaccines. Analysis was in C57BL/6 mice, without transfer of OT-I cells, so endogenous T cell responses were monitored on a normal T cell repertoire. Groups of 5 mice were used, and vaccines were administered intravenously. After 28 days, mice were killed and liver tissue collected for analysis of induced T cell response by flow cytometry. Antigen-specific cells were identified using fluorescent MHC/peptide tetramers, and further characterised as resident-memory T cells (TRM CD8^+ CD44^+ CD69^+ CXCR6^+ CD49a^+ CD62L^low cells), effector memory T cells (TEM CD8^+ CD44^+ CD69^− KLRG1^+ CXCR3^+ CD62L^low cells) or central memory cells (TCM CD8^+ CD44^+ CD69^− CD62L^high cells). At the same timer, NKT cells in the liver were also evaluated using fluorescent CD1d/α-GalCer tetramers. These were characterised for expression of different markers of activation, including PD-1 (only the latter is shown here). White circles: LPX-mOVA-α-GalCer; black circles: LPX-mOVA-CI058. (A) Graph showing mean number of TRM cells in liver for each treatment group (±SEM) overdose range. ****P<0.0001. (B) Graph showing mean level of expression of the “invariant” NKT cell-associated TCR for each treatment group (±SEM), defined as level of binding of fluorescent CD1d/α-GalCer tetramers and expressed as mean fluorescence index. ****P<0.0001 (C) Graph showing mean level of expression of PD-1 on NKT cells for each treatment group (±SEM). **P<0.01
To examine whether a prodrug mechanism is involved in enhanced TRM cell induction, LPX-mOVA-CI058 vaccines were compared to vaccines containing different NKT cell agonist prodrugs. […]

For `CCCCCCCCCCCCCCCCCCCCCCCCCC(=O)N[C@@H](CO[C@H]1OC(CSCCCCCNC(=O)CCC2=C3C(C)=CC(C)=[N+]3[B-](F)(F)n3c(C)cc(C)c32)[C@H](O)C(O)[C@@H]1O)[C@H](O)[C@H](O)CCCCCCCCCCCCCC` (stereo partly drawn) [CI534], in assay [1], the “overall TRM cell accumulation in the liver” value was “All but two of the 6'S-substituted agonists (CI534, CI540)” and the “proportion of liver TRM among all vaccine-induced antigen-specific T cells (TRM cell-inducing capability)” value (from here on “proportion … (TRM cell-inducing capability)”) is recorded as “significantly enhanced relative to vaccines with α-GalCer”.
Regarding `CCCCCCCCCCCCCCCCCCCCCCCCCC(=O)N[C@@H](CO[C@H]1O[C@H](CSCC(N)=O)[C@H](O)[C@H](O)[C@H]1O)[C@H](O)[C@H](O)CCCCCCCCCCCCCC` [CI536, (2S,3S,4R)-1-(6-Deoxy-6-((2-amino-2-oxoethyl)thio)-α-D-galactopyranosyloxy)-2-hexacosanoylamino-3,4-octadecandiol], in assay [2] (LNP with DLin-MC3-DMA, 28 days), the “proportion of TEM in the spleen” value is listed as “higher proportion of TEM”. The “proportion of TRM in liver compared to spleen” value in assay [2] (LNP with DLin-MC3-DMA, prime or prime-boost, no T cell transfer, 28 days) was “increased proportion of liver TRM in the liver as compared to the spleen”. For the same compound, in assay [2] (boosted groups, two-week interval, vs PBS control), the “number of liver TRM” value was “highest number of liver TRM compared to PBS control group”.
With `CCCCCCCCCCCCCCCCCCCCCCCCCC(=O)N[C@@H](CO[C@H]1OC(CSCCCCCNC(=O)OCc2c3ccccc3cc3ccccc23)[C@H](O)C(O)[C@@H]1O)[C@H](O)[C@H](O)CCCCCCCCCCCCCC` (stereo partly drawn) [CI540], in assay [1], the “overall TRM cell accumulation in the liver” value was “All but two of the 6'S-substituted agonists (CI534, CI540)”.
As to `CCCCCCCCCCCCCCCCCCCCCCCCCC(=O)N[C@@H](CO[C@H]1OC(CN)[C@H](O)C(O)C1O)[C@H](O)[C@H](O)CCCCCCCCCCCCCC` (stereo partly drawn) [CN168], the “proportion … (TRM cell-inducing capability)” value in assay [1] is on record as “significantly enhanced relative to vaccines with α-GalCer”.
Take `CCCCCCCCCCCCCCCCCCCCCCCCCC(=O)N[C@@H](CO[C@H]1O[C@H](CS)[C@H](O)[C@H](O)[C@H]1O)[C@H](O)[C@H](O)CCCCCCCCCCCCCC` [CN237]: the “proportion … (TRM cell-inducing capability)” value in assay [1] is listed as “significantly enhanced relative to vaccines with α-GalCer”.
Turning to `CCCCCCCCCCCCCCCCCCCCCCCCCC(=O)N[C@@H](CO[C@H]1O[C@H](CO)[C@H](O)[C@H](O)[C@H]1O)[C@H](O)[C@H](O)CCCCCCCCCCCCCC` [α-GalCer, reference compound], the “proportion of TRM cells among antigen-specific T cells in liver and spleen” value in assay [3] was “low proportions of TRM cells in liver and spleen”.
